Measured values taken from patent US20200348288A1, “A method and a system for analysis of cardiomyocyte function” (IMEC VZW, priority 2017, published 2020).

Tested on: cardiomyocytes
Assay: analysis of cardiomyocyte function (microelectrode array recording with simultaneous reflective lensfree imaging) before and after administering of a drug
Type: cell-based
Settings: after vs before administering of drug, FIG. 5
Source text: During or in-between measurements, a drug may be administered 210 to the cardiomyocytes in order to allow predicting of adverse effects on electrical and/or contractile function of the cardiomyocytes.
After drug treatment, analysis 212 on the cardiomyocytes is again performed. The electrical and/or contractile representations before and after drug treatment may be compared in order to predict adverse effects.
The method further comprises recording 304 electrical signals from the cardiomyocytes. The electrical signals may be acquired by the microelectrode array 112, which may be arranged in contact with the cardiomyocytes on the substrate 110. The electrical signals may further be transferred to readout circuitry 120 recording electrical signals received from the microelectrode array 112.
The method further comprises simultaneously with the recording 304, acquiring 306 a sequence of images. Each image may be acquired by detecting light wavefront information in reflective lensfree imaging and reconstructing the image of the cardiomyocytes based on the detected light wavefront information.
The method further comprises determining 308 an electrical representation relating to an intracellular and/or extracellular action potential, and/or an impedimetric electrical image of a cardiomyocyte based on the recorded electrical signals. […]

electrical function of the cardiomyocytes (electrical representation): not affected
Compound: Cc1ccc2c(c1)C(=O)C1(O)CCN(c3ccccc3)C1=N2 (centres unmarked) [blebbistatin]
contractile function of the cardiomyocytes (contractile representation): severe adverse effects
